The experiment concerns HT-29 cells. In words: HT29 Cells 0FBS Assay In Vitro (TNF-α/SMAC mimetic/zVAD-FMK induced necroptosis, CellTiter-Glo cell viability). It is filed as cell-based. The settings on record: Homo sapiens, HT-29 cells, FBS free medium, TNF-α (10 ng/ml), SMAC mimetic (6 uM), zVAD-FMK (10 μM), 20 hours, geometric mean EC50. In a few lines:
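HT-29 cells (5,000/well, seeded overnight) in serum-free McCoy's 5A were stimulated with TNF-α 10 ng/ml, SMAC mimetic 6 μM and zVAD-FMK 10 μM to induce necroptosis. Compound added as 10-point 3-fold series for 20 h at 37° C. CellTiter-Glo luminescence gives viability; EC50 is geometric mean of duplicate dose-responses.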
Background: Cellular ATP, detected with luciferase, serves as a proxy for viable cell number.

Setting [1] is: read-out: Cell activity (EC50) of Compounds 1-116.
[2] abbreviates: read-out: Cell activity (EC50) of Compounds 117-281.

Where two headings read alike, the source gives them in different places.

For orientation: EC50 means the midpoint of the concentration-response curve.

On to `Cn1ncc(C(=O)N2CCC2)c1-c1cc(OC2CN(C(=O)N3N=CC[C@H]3c3cc(F)cc(F)c3)C2)c(F)cn1` [compound 72, (S)-azetidin-1-yl(5-(4-((1-(5-(3,5-difluorophenyl)-4,5-dihydro-1H-pyrazole-1-carbonyl)azetidin-3-yl)oxy)-5-fluoropyridin-2-yl)-1-methyl-1H-pyrazol-4-yl)methanone], for which the 50% effective concentration (EC50) under setting [1] is 0.1 to 1 µM.

On to `Cc1nn(-c2cc(OC3CN(C(=O)N4N=CC[C@H]4c4cc(F)cc(F)c4)C3)c(F)cn2)c(C)c1S(=O)(=O)NC1COC1` [compound 240], for which the EC50 under setting [2] was in the range of 0.0001 to 0.1 µM.

With `CN(C)C(=O)c1cc(-c2cc(OC3CN(C(=O)N4N=CC[C@H]4c4cc(F)cc(F)c4)C3)c(F)cn2)n(C)n1` [compound 171, (S)-5-(4-((1-(5-(3,5-difluorophenyl)-4,5-dihydro-1H-pyrazole-1-carbonyl)azetidin-3-yl)oxy)-5-fluoropyridin-2-yl)-N,N,1-trimethyl-11H-pyrazole-3-carboxamide], the EC50 under setting [2] is 0.0001 to 0.1 µM.

`Cc1nn(-c2cc(OC3CN(C(=O)N4N=CC[C@H]4c4cc(F)cc(F)c4)C3)c(F)cn2)c(C)c1C(=O)NO` [compound 252, (S)-1-(4-((1-(5-(3,5-difluorophenyl)-4,5-dihydro-1H-pyrazole-1-carbonyl)azetidin-3-yl)oxy)-5-fluoropyridin-2-yl)-N-hydroxy-3,5-dimethyl-1H-pyrazole-4-carboxamide]: the concentration for a half-maximal effect (EC50) under setting [2] was 0.0001 to 0.1 µM.

`Cc1nn(-c2cc(OC3CN(C(=O)N4N=CC[C@H]4c4cc(F)cc(F)c4)C3)c(F)cn2)c(C)c1C(=O)N1CCC1` [compound 195, (S)-azetidin-1-yl(1-(4-((1-(5-(3,5-difluorophenyl)-4,5-dihydro-1H-pyrazole-1-carbonyl)azetidin-3-yl)oxy)-5-fluoropyridin-2-yl)-3,5-dimethyl-1H-pyrazol-4-yl)methanone]: under setting [2], the EC50 was 0.0001 to 0.1 µM.

`CCC(=O)Nc1cnn(C)c1-c1cc(OC2CN(C(=O)N3N=CC[C@H]3c3cc(F)cc(F)c3)C2)c(F)cn1` [compound 58, (S)—N-(5-(4-((1-(5-(3,5-difluorophenyl)-4,5-dihydro-1H-pyrazole-1-carbonyl)azetidin-3-yl)oxy)-5-fluoropyridin-2-yl)-1-methyl-1H-pyrazol-4-yl)propionamide]: the EC50 under setting [1] was in the range of 0.0001 to 0.1 µM.

As to `Cn1nc(C#N)cc1-c1cc(OC2CN(C(=O)N3N=CC[C@H]3c3cc(F)cc(F)c3)C2)c(F)cn1` [compound 173, (S)-5-(4-((1-(5-(3,5-difluorophenyl)-4,5-dihydro-1H-pyrazole-1-carbonyl)azetidin-3-yl)oxy)-5-fluoropyridin-2-yl)-1-methyl-11H-pyrazole-3-carbonitrile], the EC50 under setting [2] lay in the range of 0.0001 to 0.1 µM.

As for `COCCNc1nn(C)c(-c2cc(OC3CN(C(=O)N4N=CC[C@H]4c4cc(F)cc(F)c4)C3)c(F)cn2)c1C` [compound 160, (S)-(5-(3,5-difluorophenyl)-4,5-dihydro-1H-pyrazol-1-yl)(3-((5-fluoro-2-(3-((2-methoxyethyl)amino)-1,4-dimethyl-1H-pyrazol-5-yl)pyridin-4-yl)oxy)azetidin-1-yl)methanone], under setting [2], the EC50 fell in the range of 0.0001 to 0.1 µM.

With `Cc1nn(-c2cc(OC3CN(C(=O)N4N=CC[C@H]4c4cc(F)cc(F)c4)C3)c(F)cn2)c(C)c1C(=O)NCCO` [compound 214, (S)-1-(4-((1-(5-(3,5-difluorophenyl)-4,5-dihydro-1H-pyrazole-1-carbonyl)azetidin-3-yl)oxy)-5-fluoropyridin-2-yl)-N-(2-hydroxyethyl)-3,5-dimethyl-1H-pyrazole-4-carboxamide], the EC50 under setting [2] is 0.0001 to 0.1 µM.

As to `Cc1n[nH]c(C)c1-c1ccc(F)c(OC2CN(C(=O)N3N=CC[C@H]3c3cc(F)cc(F)c3)C2)c1` [compound 113, (S)-(5-(3,5-difluorophenyl)-4,5-dihydro-1H-pyrazol-1-yl)(3-(5-(3,5-dimethyl-1H-pyrazol-4-yl)-2-fluorophenoxy)azetidin-1-yl)methanone], under setting [1], the concentration for a half-maximal effect (EC50) was 0.0001 to 0.1 µM.

Regarding `Cc1nn(-c2cc(OC3CN(C(=O)N4N=CC[C@H]4c4cc(F)cc(F)c4)C3)c(F)cn2)c(C)c1NC(=O)C1CC1` [compound 139, (S)—N-(1-(4-((1-(5-(3,5-difluorophenyl)-4,5-dihydro-1H-pyrazole-1-carbonyl)azetidin-3-yl)oxy)-5-fluoropyridin-2-yl)-3,5-dimethyl-1H-pyrazol-4-yl)cyclopropanecarboxamide], under setting [2], the EC50 fell in the range of 0.0001 to 0.1 µM.

Turning to `Cc1scnc1-c1ccc(F)c(OC2CN(C(=O)N3N=CC[C@H]3c3cc(F)cc(F)c3)C2)n1` [compound 13, (S)-(5-(3,5-difluorophenyl)-4,5-dihydro-1H-pyrazol-1-yl)(3-((3-fluoro-6-(5-methylthiazol-4-yl)pyridin-2-yl)oxy)azetidin-1-yl)methanone], the EC50 under setting [1] is 0.0001 to 0.1 µM.

`Cc1n[nH]c(C)c1-c1ccc(F)c(OC2CN(C(=O)N3N=CC[C@H]3c3cc(F)cc(F)c3)C2)c1` [compound 198, (S)-(5-(3,5-difluorophenyl)-4,5-dihydro-1H-pyrazol-1-yl)(3-(5-(3,5-dimethyl-1H-pyrazol-4-yl)-2-fluorophenoxy)azetidin-1-yl)methanone]: under setting [2], the EC50 lay within 0.0001 to 0.1 µM.

For `Cc1cnn(C)c1-c1cnc(F)c(OC2CN(C(=O)N3N=CC[C@H]3c3cc(F)cc(F)c3)C2)c1` [compound 208, (S)-(5-(3,5-difluorophenyl)-4,5-dihydro-1H-pyrazol-1-yl)(3-((5-(1,4-dimethyl-1H-pyrazol-5-yl)-2-fluoropyridin-3-yl)oxy)azetidin-1-yl)methanone], the concentration giving a half-maximal response (EC50) under setting [2] was 0.0001 to 0.1 µM.

With `Cn1ncc(C(=O)N2CCCC2)c1-c1cc(OC2CN(C(=O)N3N=CC[C@H]3c3cc(F)cc(F)c3)C2)c(F)cn1` [compound 75, (S)-(5-(3,5-difluorophenyl)-4,5-dihydro-1H-pyrazol-1-yl)(3-((5-fluoro-2-(1-methyl-4-(pyrrolidine-1-carbonyl)-1H-pyrazol-5-yl)pyridin-4-yl)oxy)azetidin-1-yl)methanone], under setting [1], the EC50 lay within 1 to 10 µM.

`CSc1c(C)nn(-c2cc(OC3CN(C(=O)N4N=CC[C@H]4c4cc(F)cc(F)c4)C3)c(F)cn2)c1C` [compound 203, (S)-(5-(3,5-difluorophenyl)-4,5-dihydro-1H-pyrazol-1-yl)(3-((2-(3,5-dimethyl-4-(methylthio)-1H-pyrazol-1-yl)-5-fluoropyridin-4-yl)oxy)azetidin-1-yl)methanone]: the EC50 under setting [2] is 0.0001 to 0.1 µM.

With `CN(C)CCOc1cnn(C)c1-c1cc(OC2CN(C(=O)N3N=CC[C@H]3c3cc(F)cc(F)c3)C2)c(F)cn1` [compound 51, (S)-(5-(3,5-difluorophenyl)-4,5-dihydro-1H-pyrazol-1-yl)(3-((2-(4-(2-(dimethylamino)ethoxy)-1-methyl-1H-pyrazol-5-yl)-5-fluoropyridin-4-yl)oxy)azetidin-1-yl)methanone], the EC50 under setting [1] lay within 0.1 to 1 µM.

Take `Cc1nn(-c2cc(OC3CN(C(=O)N4N=CC[C@H]4c4cc(F)cc(F)c4)C3)c(F)cn2)c(C)c1CC(N)=O` [compound 225, (S)-2-(1-(4-((1-(5-(3,5-difluorophenyl)-4,5-dihydro-1H-pyrazole-1-carbonyl)azetidin-3-yl)oxy)-5-fluoropyridin-2-yl)-3,5-dimethyl-1H-pyrazol-4-yl)acetamide]: the EC50 under setting [2] fell in the range of 0.0001 to 0.1 µM.

As to `Cc1nn(C)cc1-c1ncc(F)c(OC2CN(C(=O)N3N=CC[C@H]3c3cc(F)cc(F)c3)C2)n1` [compound 37, (S)-(5-(3,5-difluorophenyl)-4,5-dihydro-1H-pyrazol-1-yl)(3-((2-(1,3-dimethyl-1H-pyrazol-4-yl)-5-fluoropyrimidin-4-yl)oxy)azetidin-1-yl)methanone], the EC50 under setting [1] lay in the range of 0.0001 to 0.1 µM.

With `Cc1c(-c2cc(OC3CN(C(=O)N4N=CC[C@H]4c4cc(F)cc(F)c4)C3)c(F)cn2)nn(C)c1C(=O)NC1CCC1` [compound 264, (S)—N-cyclobutyl-3-(4-((1-(5-(3,5-difluorophenyl)-4,5-dihydro-1H-pyrazole-1-carbonyl)azetidin-3-yl)oxy)-5-fluoropyridin-2-yl)-1,4-dimethyl-1H-pyrazole-5-carboxamide], the EC50 under setting [2] was 0.0001 to 0.1 µM.

Consider `Cc1cnn(C)c1-c1ccc(F)c(OC2CN(C(=O)N3N=CC[C@H]3c3cc(F)cc(F)c3)C2)n1` [compound 185, (S)-(5-(3,5-difluorophenyl)-4,5-dihydro-1H-pyrazol-1-yl)(3-((6-(1,4-dimethyl-1H-pyrazol-5-yl)-3-fluoropyridin-2-yl)oxy)azetidin-1-yl)methanone], for which the EC50 under setting [2] lay within 0.0001 to 0.1 µM.

Turning to `Cn1nccc1-c1cc(OC2CN(C(=O)N3N=CC[C@H]3c3cc(F)cc(F)c3)C2)c(F)cn1` [compound 3, (S)-(5-(3,5-difluorophenyl)-4,5-dihydro-1H-pyrazol-1-yl)(3-((5-fluoro-2-(1-methyl-1H-pyrazol-5-yl)pyridin-4-yl)oxy)azetidin-1-yl)methanone], the EC50 under setting [1] was 0.0001 to 0.1 µM.

On to `Cc1nn(S(C)(=O)=O)c(C)c1-c1cc(OC2CN(C(=O)N3N=CC[C@H]3c3cc(F)cc(F)c3)C2)c(F)cn1` [compound 187, (S)-(5-(3,5-difluorophenyl)-4,5-dihydro-1H-pyrazol-1-yl)(3-((2-(3,5-dimethyl-1-(methylsulfonyl)-1H-pyrazol-4-yl)-5-fluoropyridin-4-yl)oxy)azetidin-1-yl)methanone], for which the EC50 under setting [2] was 0.0001 to 0.1 µM.

Consider `Cn1ncc(C(N)=O)c1-c1ccc(F)c(OC2CN(C(=O)N3N=CCC3c3cc(F)cc(F)c3)C2)c1` (stereo not shown) [compound 115], for which, under setting [1], the EC50 lay within 0.0001 to 0.1 µM.

Turning to `Cc1nn(-c2cc(OC3CN(C(=O)N4N=CC[C@H]4c4cc(F)cc(F)c4)C3)c(F)cn2)c(C)c1N1CCCC1=O` [compound 270, (S)-1-(1-(4-((1-(5-(3,5-difluorophenyl)-4,5-dihydro-1H-pyrazole-1-carbonyl)azetidin-3-yl)oxy)-5-fluoropyridin-2-yl)-3,5-dimethyl-1H-pyrazol-4-yl)pyrrolidin-2-one], the EC50 under setting [2] lay within 0.0001 to 0.1 µM.
